This note sets out measurements from patent publication US9237988B2, “Benzalkonium chloride compositions for inhibiting the hydrolytic activity of endogenous matrix metalloproteinases in dental restorations” (Bisco, Inc., priority 2010, dated 2016).

The target in this test is MMP-9 enzymes (Homo sapiens, UniProt P14780). The test can be described thus: MMP inhibition after incubation with MMP-9 enzymes, Anaspec SensoLyte Generic MMP Assay Kit. In kind it is biochemical. As to conditions: for Percent MMP Inhibition at 1 Hour / Percent MMP Inhibition at 4 Hours: aqueous solution; for Percent MMP Inhibition at 1 Hour: 1 hour incubation; for Percent MMP Inhibition at 4 Hours: 4 hours incubation. Here is the method: According to another presently expected one exemplary embodiment of the present application, multiple benzalkonium chloride dental solutions were prepared in aqueous solutions in concentrations varying from 0.02% to 2%, and were incubated with MMP-9 enzymes for 4 hours. After both 1 and 4 hours of incubation, standard negative and positive controls were compared to the below concentrations of the test compositions using an Anaspec SensoLyte Generic MMP Assay Kit (#72095, Anaspec, Fremont, Calif., USA), with the resulting MMP inhibitions shown in Tables 1 and 2 below.
Chain of MMP-9 enzymes (P14780 94-707): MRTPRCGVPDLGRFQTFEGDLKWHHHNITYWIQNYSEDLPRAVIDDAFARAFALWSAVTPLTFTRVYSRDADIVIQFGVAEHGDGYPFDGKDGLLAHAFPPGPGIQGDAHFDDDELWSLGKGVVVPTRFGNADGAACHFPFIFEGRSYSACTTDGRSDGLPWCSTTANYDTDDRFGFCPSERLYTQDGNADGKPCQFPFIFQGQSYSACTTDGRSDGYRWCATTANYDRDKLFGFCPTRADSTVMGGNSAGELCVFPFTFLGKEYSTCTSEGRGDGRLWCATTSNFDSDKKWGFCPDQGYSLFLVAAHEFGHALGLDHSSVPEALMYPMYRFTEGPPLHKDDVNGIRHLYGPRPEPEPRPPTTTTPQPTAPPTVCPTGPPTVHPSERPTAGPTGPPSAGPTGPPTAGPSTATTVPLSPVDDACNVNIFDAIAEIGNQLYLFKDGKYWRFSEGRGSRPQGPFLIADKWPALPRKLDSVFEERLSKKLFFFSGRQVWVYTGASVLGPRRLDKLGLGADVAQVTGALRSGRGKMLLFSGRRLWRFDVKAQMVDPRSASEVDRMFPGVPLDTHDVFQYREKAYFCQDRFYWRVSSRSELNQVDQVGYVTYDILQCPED

[1] abbreviates: 0.5% BAC by weight, listed as benzalkonium chloride.

Turning to benzalkonium chloride [BAC], the “Percent MMP Inhibition at 1 Hour” value by setting is: (0.02% BAC by weight) 0%; (0.05% BAC by weight) 0%; (0.5% BAC by weight) 96.5%; under setting [1], 96%; (1.0% BAC by weight) 98.3%; (2.0% BAC by weight) 100%. The “Percent MMP Inhibition at 4 Hours” value (0.02% BAC by weight) is listed as 3%; the “Percent MMP Inhibition at 4 Hours” value (0.05% BAC by weight) worked out at 6%; the “Percent MMP Inhibition at 4 Hours” value (0.5% BAC by weight) was 85%; the “Percent MMP Inhibition at 4 Hours” value under setting [1] is on record as “at least 85%”; the “Percent MMP Inhibition at 4 Hours” value (1.0% BAC by weight) amounted to 95%; the “Percent MMP Inhibition at 4 Hours” value (2.0% BAC by weight) is reported as 100%. Further, the MMP inhibition result (concentration as low as 0.02% by weight, time not stated) is listed as “displayed MMP inhibition”.
